Measurements: patent EP1763509B1, “ALPHA-HELICAL MIMETICS” (THE WALTER AND ELIZA HALL INSTITUTE OF MEDICAL RESEARCH, priority 2004, dated 2006)

Biological target: T1, Bcl-wΔ29 (Homo sapiens, UniProt Q92843)
T1 construct: GST tagged Bclw ΔC29 protein
T1 sequence (Q92843 1-164 limits assumed): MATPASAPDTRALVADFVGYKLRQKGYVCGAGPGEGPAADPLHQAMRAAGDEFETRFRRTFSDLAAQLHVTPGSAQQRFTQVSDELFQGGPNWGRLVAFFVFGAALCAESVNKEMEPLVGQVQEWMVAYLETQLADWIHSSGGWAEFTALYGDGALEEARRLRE
Experiment: Alphascreen GST competition binding assay, benzoylurea compounds vs Biotinylated Bim BH3-26 peptide on GST tagged Bclw ΔC29 protein
Settings: GST tagged Bclw ΔC29 protein 0.05 nM, Biotinylated Bim BH3-26 peptide 3.0 nM, 4 hours at room temperature; values marked a tested in a separate experiment; n.b. = not binding in the assay conditions

SMILES | IC50 [µM] | Bcl-wΔ29 IC50 (µM)
CSCCN(C(=O)N[C@@H](CSCc1ccccc1)C(=O)O)C(=O)c1cccc(-c2ccccc2)c1 [(40)] | 63 | 
CCCN(C(=O)N[C@@H](CCc1ccccc1)C(=O)O)C(=O)c1cccc(-c2ccccc2)c1 [(16)] | 130 | 
CCCN(C(=O)N[C@@H](CSCc1ccccc1)C(=O)O)C(=O)c1ccc(-c2ccc(Cl)c(Cl)c2)cc1 [(65)] | 60 | 
CCCN(C(=O)N[C@@H](CSCc1ccccc1)C(=O)O)C(=O)c1ccc(-c2ccccc2Cl)cc1 [(48)] | 68 | 
CCCN(C(=O)N[C@@H](CCCc1ccccc1)C(=O)O)C(=O)c1cccc(-c2ccccc2)c1 [(19)] | 132 | 
CCCN(C(=O)N[C@@H](CSCc1ccccc1)C(=O)O)C(=O)c1ccc(-c2ccc(OC)cc2)cc1 [(63)] | 136 | 
CCCN(C(=O)N[C@@H](CSCc1ccccc1)C(=O)O)C(=O)c1ccc(-c2ccccc2)cc1 [(23)] | 76 | 
Cc1cccc(C)c1C(=O)N(C(=O)N[C@@H](CSCc1ccccc1)C(=O)O)C(C)C [(38)] | 297 | 
CCCN(C(=O)N[C@@H](CSCCc1ccncc1)C(=O)O)C(=O)c1cccc(-c2ccccc2)c1 [(25)] | 261 | 
CCCN(C(=O)N[C@@H](Cc1c[nH]c2ccccc12)C(=O)O)C(=O)c1cccc(-c2ccccc2)c1 [(29)] | 88 | 
CCCN(C(=O)N[C@@H](Cc1cccc2ccccc12)C(=O)O)C(=O)c1cccc(-c2ccccc2)c1 [(18)] | 60 | 
O=C([C@H](CSCc1ccccc1)NC(=O)N(Cc1cccc2ccccc12)C(=O)c1cccc(-c2ccc(F)cc2)c1)N1CCOCC1 [(72)] |  | n.b.^b
CCCN(C(=O)N[C@@H](CSCc1ccccc1)C(=O)O)C(=O)c1cccc(-c2ccc(Cl)c(Cl)c2)c1 [(58)] | 48 | 
CCCN(C(=O)N[C@H](CSCc1ccccc1)C(=O)O)C(=O)c1cccc(-c2ccccc2)c1 [(21)] | 84 | 
O=C(O)[C@H](CSCc1ccccc1)NC(=O)N(CCC1CC1)C(=O)c1ccc(-c2ccccc2)cc1 [(43)] | 57 | 
CCCN(C(=O)N[C@@H](CSCc1ccccc1)C(=O)O)C(=O)c1ccc(C#Cc2ccccc2)cc1 [(67)] | 92 | 

SMILES | IC50 [µM] | Bcl-wΔ29 IC50 (µM)
CSCCN(C(=O)N[C@@H](CSCc1ccccc1)C(=O)O)C(=O)c1ccc(-c2ccccc2)cc1 [(45)] | 69 | 
CCCN(C(=O)N[C@@H](Cc1ccc(-c2ccccc2)cc1)C(=O)O)C(=O)c1cccc(-c2ccccc2)c1 [(15)] | 41 | 
O=C(O)[C@H](CSCc1ccccc1)NC(=O)N(Cc1cccc2ccccc12)C(=O)c1cccc(-c2ccccc2)c1 [(24)] | 31.2 | 
CCCN(C(=O)N[C@@H](CSCc1ccccc1)C(=O)O)C(=O)c1ccc(-c2ccc(F)cc2)cc1 [(11)] | 104 | 
CCCN(C(=O)N[C@@H](CSCc1ccccc1)C(=O)O)C(=O)c1cccc(-c2ccc(OC)cc2)c1 [(52)] | 96 | 
CCCN(C(=O)N[C@@H](CSCc1ccccc1)C(=O)O)C(=O)c1cccc(C#Cc2ccccc2)c1 [(66)] | 58 | 
CCCN(C(=O)N[C@@H](CSCc1ccccc1)C(=O)O)C(=O)c1cccc(-c2cccc3ccccc23)c1 [(13)] | 31 | 
CCCN(C(=O)N[C@@H](CSCc1ccccc1)C(=O)O)C(=O)c1cccc(-c2ccc(C)cc2)c1 [(47)] | 62 | 
CCCN(C(=O)N[C@@H](CSCc1ccccc1)C(=O)O)C(=O)c1cccc(-c2ccc(F)cc2)c1 [(35)] | 66 | 
CCCN(C(=O)N[C@@H](COCc1ccccc1)C(=O)O)C(=O)c1cccc(-c2ccccc2)c1 [(30)] | 147 | 
CCCN(C(=O)N[C@@H](Cc1ccc(O)cc1)C(=O)O)C(=O)c1cccc(-c2ccccc2)c1 [(28)] | 300 | 
CCCN(C(=O)N[C@@H](CSCc1ccccc1)C(=O)O)C(=O)c1ccc(-c2ccc(C)cc2)cc1 [(62)] | 48 | 
CCCN(C(=O)N[C@@H](CSCc1ccccc1)C(=O)O)C(=O)c1ccc(-c2ccc(Cl)cc2)cc1 [(64)] | 74 | 
CCCN(C(=O)N[C@@H](CSCc1ccccc1)C(=O)O)C(=O)c1cccc(-c2ccc3ccccc3c2)c1 [(14)] | 36 | 
CCCN(C(=O)N[C@@H](CSc1ccccc1)C(=O)O)C(=O)c1cccc(-c2ccccc2)c1 [(22)] | 80 | 
